Measurements from patent publication US8143226B2, “Tyrosine kinase receptor antagonists and methods of treatment for breast cancer” (The Regents of the University of California, priority 2005, dated 2012).

Experiments:
[1] = molecular target: T1, IGF-1R kinase domain peptide (Homo sapiens, UniProt P08069); test: IGF-1R kinase domain peptide autophosphorylation (western blot); assay type: biochemical; conditions: peptide incubated with NDGA prior to 20 μM ATP
T1 construct: purchased Upstate, USA (Charlottesville, Va.)
T1 sequence (P08069 989-1367): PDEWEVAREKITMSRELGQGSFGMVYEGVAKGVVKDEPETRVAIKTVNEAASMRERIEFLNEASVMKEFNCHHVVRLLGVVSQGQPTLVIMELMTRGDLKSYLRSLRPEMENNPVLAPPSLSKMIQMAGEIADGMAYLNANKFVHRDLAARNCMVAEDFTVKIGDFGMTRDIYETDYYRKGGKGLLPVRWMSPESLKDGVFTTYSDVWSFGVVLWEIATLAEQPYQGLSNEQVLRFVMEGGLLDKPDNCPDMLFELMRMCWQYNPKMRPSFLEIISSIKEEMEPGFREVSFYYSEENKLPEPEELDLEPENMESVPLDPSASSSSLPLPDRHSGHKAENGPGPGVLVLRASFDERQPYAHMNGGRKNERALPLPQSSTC
Procedure: ATP was then added at a final concentration of 20 μM. Autophosphorylation of peptide was allowed to occur for 20 min at 22° C. The reaction was stopped by the addition of SDS-reducing buffer, and the samples were run on SDS-PAGE. Following transfer to nitrocellulose membrane, peptide autophosphorylation was determined by western blotting employing an antibody against phosphotyrosine diluted to 0.5 μg/ml in phosphate buffered saline (PBS) containing 3% milk. The membrane was incubated with the antibody overnight at 4 C. Next, blots were washed 3 times with PBS, then incubated with HRP conjugated sheep anti-rabbit IgG (Amersham, Piscataway, N.J.) diluted 1:50,000 in PBS with 3% milk for 90 minutes at room temperature. After washing, blots were incubated with Super-Signal (Pierce, Rockford, Ill.), and exposed to film. Values were determined by scanning densitometry.

[2] = molecular target: T2, IGF-1R (Mus musculus, UniProt Q60751); test: IGF-1R autophosphorylation in excised MCNeuA tumors (ELISA); assay type: in vivo; conditions: 37.5 mg/kg i.p. three times a week, 16 hours after final dose, vs vehicle
T2 construct: from tissue; host or cells: MCNeuA tumours excised from neuTg mice
T2 sequence (Q60751 31-1373): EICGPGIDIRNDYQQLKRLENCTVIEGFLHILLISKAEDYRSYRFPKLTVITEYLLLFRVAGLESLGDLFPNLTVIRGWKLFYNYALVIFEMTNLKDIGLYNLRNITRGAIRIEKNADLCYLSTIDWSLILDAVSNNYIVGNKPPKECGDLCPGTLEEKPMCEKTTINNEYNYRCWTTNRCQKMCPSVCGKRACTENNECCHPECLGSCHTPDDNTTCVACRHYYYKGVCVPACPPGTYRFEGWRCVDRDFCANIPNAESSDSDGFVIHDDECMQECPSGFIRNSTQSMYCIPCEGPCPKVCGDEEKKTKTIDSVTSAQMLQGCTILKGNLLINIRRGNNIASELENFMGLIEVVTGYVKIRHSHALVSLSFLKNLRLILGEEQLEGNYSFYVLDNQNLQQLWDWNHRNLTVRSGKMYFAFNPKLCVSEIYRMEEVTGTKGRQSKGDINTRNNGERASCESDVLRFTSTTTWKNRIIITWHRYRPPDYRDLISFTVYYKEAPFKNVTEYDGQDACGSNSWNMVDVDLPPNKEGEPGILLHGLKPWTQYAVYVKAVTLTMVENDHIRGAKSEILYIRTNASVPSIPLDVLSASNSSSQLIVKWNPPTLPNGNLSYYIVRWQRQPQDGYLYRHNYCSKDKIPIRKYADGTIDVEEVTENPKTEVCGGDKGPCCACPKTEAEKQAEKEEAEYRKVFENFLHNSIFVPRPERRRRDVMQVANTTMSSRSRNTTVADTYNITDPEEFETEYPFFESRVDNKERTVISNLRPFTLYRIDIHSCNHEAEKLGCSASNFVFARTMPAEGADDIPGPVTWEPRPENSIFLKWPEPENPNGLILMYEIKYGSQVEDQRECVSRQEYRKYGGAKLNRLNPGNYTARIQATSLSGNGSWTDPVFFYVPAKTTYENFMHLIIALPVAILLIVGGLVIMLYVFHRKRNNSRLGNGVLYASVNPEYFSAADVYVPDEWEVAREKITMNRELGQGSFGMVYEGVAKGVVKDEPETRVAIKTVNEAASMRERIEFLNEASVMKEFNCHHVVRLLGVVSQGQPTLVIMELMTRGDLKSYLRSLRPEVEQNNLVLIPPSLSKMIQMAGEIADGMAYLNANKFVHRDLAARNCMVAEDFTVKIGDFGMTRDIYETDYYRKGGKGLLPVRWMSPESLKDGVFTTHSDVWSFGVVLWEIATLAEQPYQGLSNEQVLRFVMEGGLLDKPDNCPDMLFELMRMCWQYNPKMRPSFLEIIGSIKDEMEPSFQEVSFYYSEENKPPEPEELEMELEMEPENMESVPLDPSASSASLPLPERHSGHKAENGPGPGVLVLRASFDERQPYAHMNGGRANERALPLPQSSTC
Procedure: Tumors were homogenized in 50 mM HEPES, pH 7.6, 150 mM NaCl, 1 mM PMSF, 2 μM leupeptin, 2 μM Pepstatin A, and 2 mM Na3VO4, and solubilized by the addition of 1% Triton x-100. Soluble lysates were prepared as described for cell culture studies. Tyrosine phosphorylation of IGF-1R was determined by ELISA as described for MCF-7 cells. Phosphorylation of HER2/neu was determined by western blot employing the phospho-specific antibody as in the cell culture studies. The degree of phosphorylation for each receptor was normalized to total receptor protein content in the tumor samples as determined by western blotting with antibodies against the human IGF-1R and the rodent HER2/neu.

[3] = test system: SH-SY5Y, SHEP and Kelly neuroblastoma cells; test: CyQUANT assay for neuroblastoma cell growth; assay type: cell-based, human
Procedure: CyQUANT assay for cell growth. Cells were plated on four 96-well tissue culture plates, in DMEM/10% calf serum at a density of 8000 cells/well and incubated for 24 h. In one set of experiments, the medium was switched to serum free DMEM supplemented with 1% bovine serum albumin (to provide osmotic support). IGF-I (10 nM) was added to some samples on a daily basis for up to 3 days. […] The media from one plate was immediately removed, and the plate was frozen at −80° C. This plate served as the baseline for the experiment. Single plates were frozen at 24, 48, and 72 h following addition of drugs. DNA content of each well was quantified by staining with CyQUANT according to the manufacturer's instructions and measuring CyQUANT […] with a fluorimeter. Each condition was run in triplicate, and the experiment was repeated three times.

[4] = test system: SH-SY5Y and SHEP cells; test: IGF-I stimulated motility of neuroblastoma cells on gold particle-coated coverslips; assay type: cell-based, human; conditions: 30 μM NDGA, 1 nM IGF-I, 6 h
Procedure: Measurement of cell motility. Neuroblastoma cells were plated on gold particle-coated coverslips (prepared as described in (30)) in serum-free media at a density of 25,000 cells per coverslip. The cells were incubated for 2 h to allow adhesion to the coverslip. […] 1 nM IGF-I was then added to some wells. Incubation continued for 6 h, followed by fixation with 3.5% glutaraldehyde. Coverslips were mounted on glass slides, then viewed on a Lietz Orthoplan inverted microscope attached to a Sony videoprocessor. Digital images of the tracks etched into the gold by the cells from 3 separately treated coverslips per condition were collected at 200× magnification using Adobe Photoshop software. For each condition, the areas of 120 tracks made by individual cells were measured with NIH Image 1.61 software.

[5] = test system: Kelly human neuroblastoma cells
Procedure: Briefly, 7×10^6 Kelly human neuroblastoma cells were resuspended in a 1:1 mixture of PBS and Matrigel (BD Clontech Inc.) and 100 μl of the mixture was injected subcutaneously into the flanks of 6-12 week-old BALB/c nude mice. […] Tumors were then harvested, weighed and measured. The formula width^2×length/2 was used to calculate tumor-volumes.

[6] = test system: MCF-7/neo cells; test: Tamoxifen and/or NDGA growth inhibition of MCF-7/neo cells (CyQuant); assay type: cell-based; conditions: Homo sapiens, MCF7
Procedure: Cells were estrogen-starved for three days in DMEM containing 10% charcoal-[…]-stripped FCS (CDSS) prior to their plating in 96 well plates. Cells were plated in 100 μl of the same media, allowed to adhere overnight, and then were switched to DMEM+10% CDSS supplemented with 100 pM estrogen. […] The media and inhibitors were refreshed on day 3, the cultures were harvested on day 6, and a CyQuant assay was performed as described above.

[7] = test system: IGF-1; test: IGF-1 activation in pancreatic cancer cells; assay type: cell-based

For `CC(Cc1ccc(O)c(O)c1)C(C)Cc1ccc(O)c(O)c1` (centres unmarked) [NDGA, nordihydroguaiaretic acid], the “concentration at which activation of the IGF-1R kinase domain was inhibited” value [1] was 1 µM, the “IGF-1R autophosphorylation in tumors” value [2] was “reduced” and the “proliferation in serum-free media with 10 nM IGF-I” value ([3]; SH-SY5Y and Kelly cells, up to 72 h) was “inhibited proliferation”. For the same molecule, the “proliferation in medium containing 10% serum” value ([3]; SH-SY5Y and SHEP cells, up to 72 h) was “inhibited the proliferation”, the “dose that completely blocks neuroblastoma growth in vitro” value ([3]; serum and serum-free conditions, several days) was 15 to 30 µM and the “IGF-I induced increase in motility” value [4] was “strongly suppressed”. The “inhibition of tumor growth” value ([5]; 50 mg/kg daily for 10 d, nude mice, Kelly xenografts) was 50%, the tolerability in mice ([5]; mouse, in vivo) was “very well tolerated” and the inhibition at 10 µM [6] was 23%. The inhibition at 15 µM [6] was 55% and the IGF-1 activation [7] was “inhibiting”.
